As usually defined, the IC50 is the point on the concentration scale where inhibition reaches its midpoint.

A value given as a limit tells only on which side of the number the result lay.

Assay [1] relates to human LDLs. Description: Modification of the LDLs by copper sulphate (MDA formation). It is filed as biochemical. The note with it: for IC50: oxidation by copper sulphate, 24 hours, read-out: IC50 Cu^2+ (inhibition of lipid peroxidation of human LDLs, MDA production). Here is the method: Human LDLs are incubated for 24 hours in the presence of copper sulphate (5×10^-5 M or 5×10^-6 M) and in the absence or presence of the test compounds (10^-7 M to 10^-4 M).
After incubation, the peroxidation of the LDLs is evaluated by electrophoresis on agar gel and by the formation of one of the products of lipid peroxidation: malonic dialdehyde (MDA) (Parthasarathy S., Young S. G., Witztum J. L., Pittman R. C., and Steinberg D.; J. Clin. Invest. 77, 641-644, 1986).
The activity of the test compounds is evaluated by calculating the concentrations that reduce the production of MDA by 50% (IC50) compared with control experiments carried out in the absence of test compound.
(§1) Table A lists the IC50 values, which indicate the capacity to inhibit the lipid peroxidation of human LDLs, obtained with a sample of the compounds of the invention and of the reference compounds probucol and vitamin E, in two tests causing the development of the oxidation of the LDLs: by copper sulphate (Cu^2+) or by endothelial cells (EC).

Assay [2] concerns human LDLs. Description: Modification of the LDLs by endothelial cells (MDA formation). It is filed as cell-based. Here is the method: Human LDLs are incubated for 24 hours in the presence of rabbit aorta endothelial cells (line RECL B4 supplied by Professor Steinberg, USA) and in the absence or presence of the test compounds (10^-7 M to 10^-4 M).
After incubation, the peroxidation of the LDLs is evaluated by electrophoresis on agar gel and by the formation of one of the products of lipid peroxidation: malonic dialdehyde (MDA) (Steinbrecher U.P., Parthasarathy S, Leake D. S., Witztum J. L., and Steinberg D., Proc. Nat. Acad. Sci. USA 81. 3883-3887, 1984).
The activity of the test compounds is evaluated by calculating the concentrations that reduce the production of MDA by 50% (IC50) compared with the control experiments carried out in the absence of test compound.
as §1

The test system of the next assay is cardiac cells. Description: Oxidative necrosis of cardiac cells induced by hypoxanthine/xanthine oxidase. It is filed as cell-based, new-born rats. The note with it: for activity at 10 µM / activity at 1 µM / activity at 0.1 µM: control = 100, means ± sem, read-out: index of necrosis of cardiac cells; for activity at 0.1 µM: 10^-7 M. Here is the method:
Cardiac cells of new-born rats are used between the 5th and 6th days after placing in a culture. Oxidative necrosis is induced by the enzymatic system hypoxanthine (HX, 1 mM) and xanthine oxidase (XO, 10 mU/ml), which produces free radicals. The necrosis is evaluated 4 hours after the addition of XO/HX by the spectrophotometric measurement of the cytosolic α-hydroxybutyrate dehydrogenase (α-HBDH) activity liberated in the supernatant. Two reference molecules (probucol, vitamin E) and 3 molecules representative of the present invention (corresponding to Examples 1, 3 and 4) were tested. The cells are treated with the molecules 16 hours and 1 hour before the beginning of the experiment after renewing the medium. At the beginning of the experiment, the treatment is carried out one last time.
Table B lists the indices of the necrosis of cardiac cells induced by the system hypoxanthine/xanthine oxidase on its own or in the presence of increasing concentrations of the compounds of the invention or of the reference compounds: probucol and vitamin E.
The necrosis index 100 corresponds to a liberation of 43.6±1.0% in 4 hours of the cytosolic content of α-HBDH in the supernatant.
The results are expressed in the form of means ± sem (4≤n≤5, 3 repetitions per experiment).

Assay [3] has as its system LDLs of the Watanabe rabbits. Briefly: Ex vivo copper sulphate oxidation of LDLs from orally treated Watanabe rabbits (MDA production). It is filed as in vivo. The conditions noted are these: for MDA production: 3 days. Here is the method:
Watanabe rabbits ([…] hyperlipidaemic rabbits) are used that range in weight from 3 kg to 5 kg. The animals are treated orally with the carrier of the test compounds (control group) or with the test compounds at doses of 10, 50 and 250 mg/kg/day for 3 days.
When the treatment is complete, the LDLs of the animals are prepared by ultracentrifugation and subjected to oxidation with copper sulphate (5×10^-6 M). The lipid peroxidation of the LDLs is evaluated after various periods of incubation with copper sulphate (from 2 to 24 hours) by measuring the formation of MDA.
Table C lists the MDA production values according to the incubation period with copper sulphate of those LDLs originating from the control animals and those originating from the animals treated with the compounds of Examples 1, 3 and 31 at different doses or with probucol.

The mark [4] stands for this setting: Rattus norvegicus, 4 h, 10^-5 M.
The mark [5] stands for this setting: Rattus norvegicus, 4 h, 10^-6 M.
The mark [6] stands for this setting: 250 mg/kg/day oral, 2 hours incubation with copper sulphate.
Setting [7] is: 250 mg/kg/day oral, 4 hours incubation with copper sulphate.
Where [8] appears, read: 250 mg/kg/day oral, 6 hours incubation with copper sulphate.
Setting [9] is: 250 mg/kg/day oral, 8 hours incubation with copper sulphate.
Setting [10] is: 250 mg/kg/day oral, 24 hours incubation with copper sulphate.
[11] abbreviates: oral, peroxidation induced by copper sulphate.

For the compound `CC(C)(C)c1cc(SCCCN2CCC3(CC2)CNC(=O)O3)cc(C(C)(C)C)c1O` [Example 3], in the assay with human LDLs [1] (modifications induced by copper sulphate), the “ability to protect human LDLs compared with probucol or vitamin E, copper sulphate” value is given as “greater ability”. In the assay with human LDLs [1], the IC50 worked out at 0.3 µM. Besides, the “ability to protect human LDLs compared with probucol or vitamin E, endothelial cells” value in the assay with human LDLs [2] (modifications induced by endothelial cells) is “greater ability”. Also, in the assay on human LDLs [2] (test using endothelial cells), the “times more powerful than probucol (endothelial cells)” value came out at 100 times. Besides, in the assay on cardiac cells (10^-6 M and 10^-5 M), the “effect on oxidative necrosis of cardiac cells compared with reference compounds” value is “distinctly superior to the reference compounds”. In the assay with cardiac cells (setting [4]), the activity at 10 µM was 4.2 ± 2.7%. In addition, the activity at 1 µM in the assay with cardiac cells (setting [5]) turned out to be 12 ± 4.4%. Also, the activity at 0.1 µM in the assay with cardiac cells (Rattus norvegicus, 4 h) amounted to 60.6 ± 17.1%. For the same compound, in the assay with cardiac cells (Rattus norvegicus, Cardiomyocyte, 4 h, 10^-5 M, read-out: reduction of oxidative necrosis of cardiomyocytes), the inhibition at 10 µM was > 95%. Also, the inhibition at 1 µM in the assay with cardiac cells (Rattus norvegicus, Cardiomyocyte, 4 h, 10^-6 M, read-out: reduction of oxidative necrosis of cardiomyocytes) was > 80%. Besides, the MDA production was 1.27 nM/mg proteins in assay [3] (10 mg/kg/day oral, 2 hours incubation with copper sulphate); 0.27 nM/mg proteins in assay [3] (10 mg/kg/day oral, 4 hours incubation with copper sulphate); 3.29 nM/mg proteins in assay [3] (10 mg/kg/day oral, 6 hours incubation with copper sulphate); 6.85 nM/mg proteins in assay [3] (10 mg/kg/day oral, 8 hours incubation with copper sulphate); 22.78 nM/mg proteins in assay [3] (10 mg/kg/day oral, 24 hours incubation with copper sulphate); 0.16 nM/mg proteins in assay [3] (50 mg/kg/day oral, 2 hours incubation with copper sulphate). In addition, the MDA production in assay [3] (50 mg/kg/day oral, 4 hours incubation with copper sulphate) was 0 nM/mg proteins; in assay [3] (50 mg/kg/day oral, 6 hours incubation with copper sulphate), 1.06 nM/mg proteins; in assay [3] (50 mg/kg/day oral, 8 hours incubation with copper sulphate), 1.44 nM/mg proteins; in assay [3] (50 mg/kg/day oral, 24 hours incubation with copper sulphate) it was 7.30 nM/mg proteins; in assay [3] (setting [6]), 0.66 nM/mg proteins; in assay [3] (setting [7]) it was 0 nM/mg proteins. Further, the MDA production was determined as 0 nM/mg proteins in assay [3] (setting [8]), 0.69 nM/mg proteins in assay [3] (setting [9]) and 0.91 nM/mg proteins in assay [3] (setting [10]). Moreover, in assay [3] (setting [11]), the “dose from which particularly effective” value was ≥ 10 mg/kg/day. In addition, the “dose from which peroxidation of the LDLs is inhibited” value in assay [3] (setting [11]) is given as ≥ 50 mg/kg/day.

Regarding `CC(C)(Sc1cc(C(C)(C)C)c(O)c(C(C)(C)C)c1)Sc1cc(C(C)(C)C)c(O)c(C(C)(C)C)c1` [probucol, reference compound], the half-maximal inhibitory concentration (IC50) in the assay with human LDLs [1] was 3 µM; in the assay on human LDLs [2] (oxidation by rabbit aorta endothelial cells, 24 hours, read-out: IC50 EC (inhibition of lipid peroxidation of human LDLs, MDA production)) it was 4 µM. Moreover, the activity at 10 µM in the assay on cardiac cells (setting [4]) came out at 26.6 ± 6.3%. Besides, the activity at 1 µM in the assay on cardiac cells (setting [5]) came out at 68.8 ± 3.9%. Besides, in the assay with cardiac cells (Rattus norvegicus, 4 h), the activity at 0.1 µM came out at 103 ± 2%. In addition, the MDA production in assay [3] (setting [6]) was determined as 1.85 nM/mg proteins; in assay [3] (setting [7]), 3.50 nM/mg proteins; in assay [3] (setting [8]) it was 4.90 nM/mg proteins; in assay [3] (setting [9]), 12.26 nM/mg proteins; in assay [3] (setting [10]), 23.81 nM/mg proteins. Besides, the “retardation of peroxidation of the LDLs compared with control animals” value in assay [3] (oral treatment of Watanabe rabbits) is given as “approximately 2 hours”.

These data come from patent publication US5206247A, “Spiro(4.5.)decane compounds” (Adir Et Compagnie, priority 1990, dated 1993).
